Assay results published in PMC6321475, “Synthesis and Evaluation of the 4-Substituted 2-Hydroxy-5-Iodochalcones and Their 7-Substituted 6-Iodoflavonol Derivatives for Inhibitory Effect on Cholinesterases and β-Secretase” (International Journal of Molecular Sciences, 2018).
Where two headings read alike, the source gives them in different places.

How the values were obtained:
Assay type in all cases: biochemical
[1] = molecular target: butyrylcholinesterase (BChE) (Homo sapiens, UniProt P06276); test: biochemical
Sequence of butyrylcholinesterase (BChE) (P06276 29-602): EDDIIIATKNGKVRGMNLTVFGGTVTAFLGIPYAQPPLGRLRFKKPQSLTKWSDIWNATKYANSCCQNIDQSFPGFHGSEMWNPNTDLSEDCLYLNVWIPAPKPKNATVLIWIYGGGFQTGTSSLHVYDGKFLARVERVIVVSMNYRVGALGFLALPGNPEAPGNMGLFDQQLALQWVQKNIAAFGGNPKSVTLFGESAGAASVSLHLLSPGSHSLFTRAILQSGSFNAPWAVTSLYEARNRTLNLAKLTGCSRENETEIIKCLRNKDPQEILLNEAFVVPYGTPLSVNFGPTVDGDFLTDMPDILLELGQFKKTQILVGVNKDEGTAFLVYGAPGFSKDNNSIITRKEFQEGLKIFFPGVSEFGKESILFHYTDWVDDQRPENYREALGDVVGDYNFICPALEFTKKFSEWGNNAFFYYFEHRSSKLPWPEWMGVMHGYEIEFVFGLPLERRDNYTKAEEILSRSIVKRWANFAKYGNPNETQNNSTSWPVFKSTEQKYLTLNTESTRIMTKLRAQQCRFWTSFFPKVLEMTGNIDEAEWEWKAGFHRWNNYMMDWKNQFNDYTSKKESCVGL

[2] = molecular target: acetylcholinesterase (AChE) (Homo sapiens, UniProt P22303); test: biochemical
Sequence of acetylcholinesterase (AChE) (P22303 32-614): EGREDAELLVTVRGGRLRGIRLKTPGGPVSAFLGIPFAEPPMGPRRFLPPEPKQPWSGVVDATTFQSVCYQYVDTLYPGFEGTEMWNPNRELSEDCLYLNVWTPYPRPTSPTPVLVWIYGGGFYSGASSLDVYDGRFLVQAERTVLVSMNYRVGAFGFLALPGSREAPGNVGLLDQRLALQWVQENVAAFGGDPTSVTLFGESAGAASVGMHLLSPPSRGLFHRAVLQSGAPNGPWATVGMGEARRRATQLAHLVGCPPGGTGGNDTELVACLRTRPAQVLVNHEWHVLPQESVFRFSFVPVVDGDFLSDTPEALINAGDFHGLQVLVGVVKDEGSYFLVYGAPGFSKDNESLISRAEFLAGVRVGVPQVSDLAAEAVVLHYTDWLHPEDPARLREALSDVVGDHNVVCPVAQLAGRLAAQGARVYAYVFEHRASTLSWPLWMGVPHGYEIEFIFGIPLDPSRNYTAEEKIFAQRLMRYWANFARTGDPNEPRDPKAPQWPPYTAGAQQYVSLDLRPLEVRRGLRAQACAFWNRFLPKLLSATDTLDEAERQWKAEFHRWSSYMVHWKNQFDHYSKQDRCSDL

[3] = molecular target: BChE (Homo sapiens, UniProt P06276); test: Kinetic study against BChE (Lineweaver-Burk and Dixon plots); conditions: for Ki: Dixon plot, substrate butyrylthiocholine iodide; for mode of inhibition of BChE: kinetic analysis
Sequence of BChE (P06276 29-602): as the sequence (P06276 29-602) above
Description: (§1) The experiment was performed using different inhibitor (2h, 3b or 3p) concentrations (0, 2.5, 3.5 and 5 µM) and substrate (acetylthiocholine iodide (ACh) or butyrylthiocholine iodide (BCh) concentrations (0.1, 0.5, 2.5 and 5 µM). The reaction was carried out in triplicate and the absorbences were measured at 412 nm after every 1 s. A linear graph of the absorbences against time were plotted to obtain the velocity. Finally, the lineweaver burk plot (reciprocal of the velocity versus reciprocal of the subtrate concentrations) was plotted. as well as the Dixon plot (reciprocal of the velocity versus inhibitor concentration). The inhibition constant Ki, was determined by calculating the straight line equations and identifying the point at which the lines would intersect.

[4] = molecular target: T1, BACE-1 (Homo sapiens, UniProt P56817); test: In vitro BACE-1 inhibitory FRET assay; conditions: 60 min at 25 °C, pH 4.5
T1 construct: purchased Pan Vera; host or cells: baculovirus-expressed
T1 sequence (P56817 46-501): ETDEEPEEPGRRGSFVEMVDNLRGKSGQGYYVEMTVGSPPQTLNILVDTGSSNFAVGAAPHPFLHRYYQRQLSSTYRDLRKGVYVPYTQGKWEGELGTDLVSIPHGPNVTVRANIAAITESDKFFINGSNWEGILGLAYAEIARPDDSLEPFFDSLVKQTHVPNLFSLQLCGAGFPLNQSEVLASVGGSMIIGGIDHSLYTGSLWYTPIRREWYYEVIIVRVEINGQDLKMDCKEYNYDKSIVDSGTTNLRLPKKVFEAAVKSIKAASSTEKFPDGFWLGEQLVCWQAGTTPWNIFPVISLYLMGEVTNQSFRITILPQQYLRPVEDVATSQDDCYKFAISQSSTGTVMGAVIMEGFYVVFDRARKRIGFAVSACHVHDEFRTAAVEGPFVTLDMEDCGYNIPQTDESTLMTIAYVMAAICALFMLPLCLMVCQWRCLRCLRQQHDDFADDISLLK

[5] = molecular target: AChE (Homo sapiens, UniProt P22303); test: Kinetic study against AChE (Lineweaver-Burk and Dixon plots)
Sequence of AChE (P22303 32-614): as the sequence (P22303 32-614) above
Description: as §1

[6] = mean ± SD, three independent experiments

SMILES	SI AChE/BChE [1]	IC50 [1, 6] [µM]	SI BChE/AChE [2]	IC50 [2, 6] [µM]	IC50 [1] [µM]	IC50 [2] [µM]	Ki [3] [µM]	mode of inhibition of BChE [3]	IC50 [4] [µM]	Ki ([5]; Dixon plot, substrate acetylthiocholine iodide) [µM]	mode of inhibition of AChE ([5]; kinetic analysis)
O=C(/C=C/c1ccccc1)c1cc(I)c(F)cc1O [Compound 2a, (E)-1-(4-Fluoro-2-hydroxy-5-iodophenyl)-3-phenylpropenone]	1.38	28.06 ± 0.1	0.72	38.78 ± 0.01							
O=C(/C=C/c1ccc(F)cc1)c1cc(I)c(F)cc1O [Compound 2b, (E)-1-(4-Fluoro-2-hydroxy-5-iodophenyl)-3-(4-fluorophenyl)propenone]	0.84		1.19		19.73 ± 0.05	16.6 ± 0.03					
O=C(/C=C/c1ccc(Cl)cc1)c1cc(I)c(F)cc1O [Compound 2c, (E)-3-(4-chlorophenyl)-1-(4-fluoro-2-hydroxy-5-iodophenyl)prop-2-en-1-one]	0.72	14.58 ± 0.14	1.39	10.5 ± 0.08							
COc1ccc(/C=C/C(=O)c2cc(I)c(F)cc2O)cc1 [Compound 2d, (E)-1-(4-Fluoro-2-hydroxy-5-iodophenyl)-3-(4-methoxyphenyl)propenone]	1.29		0.78		8.49 ± 0.05	11 ± 0.3					
O=C(/C=C/c1ccccc1)c1cc(I)c(Cl)cc1O [Compound 2e, (E)-1-(4-Chloro-2-hydroxy-5-iodophenyl)-3-phenylpropenone]			2.37		25.2 ± 0.3	10.64 ± 0.07					
O=C(/C=C/c1ccc(F)cc1)c1cc(I)c(Cl)cc1O [Compound 2f, (E)-1-(4-Chloro-2-hydroxy-5-iodophenyl)-3-(4-fluorophenyl)propenone]	0.54	17.86 ± 0.08	1.87	9.57 ± 0.2							
O=C(/C=C/c1ccc(Cl)cc1)c1cc(I)c(Cl)cc1O [Compound 2g, (E)-1-(4-Chloro-2-hydroxy-5-iodophenyl)-3-(4-chlorophenyl)propenone]					> 100	11 ± 0.06					
COc1ccc(/C=C/C(=O)c2cc(I)c(Cl)cc2O)cc1 [Compound 2h, (E)-1-(4-Chloro-2-hydroxy-5-iodophenyl)-3-(4-methoxyphenyl)propenone]	2.81	4.17 ± 0.15	0.36	11.72 ± 0.07			1.36 ± 0.17	non-competitive inhibitor	13.82 ± 0.03		
O=C(/C=C/c1ccccc1)c1cc(I)c(Br)cc1O [Compound 2i, (E)-1-(4-Bromo-2-hydroxy-5-iodophenyl)-3-phenylpropenone]	4.12		0.24		14.11 ± 0.11	58.14 ± 0.21					
O=C(/C=C/c1ccc(Cl)cc1)c1cc(I)c(Br)cc1O [Compound 2k, (E)-1-(4-Bromo-2-hydroxy-5-iodophenyl)-3-(4-chlorophenyl)propenone]	1.11		0.90		10.44 ± 0.09	11.56 ± 0.05					
COc1ccc(/C=C/C(=O)c2cc(I)c(Br)cc2O)cc1 [Compound 2l, (E)-1-(4-Bromo-2-hydroxy-5-iodophenyl)-3-(4-methoxyphenyl)propenone]	0.69		1.45		15.25 ± 0.01	10.51 ± 0.03					
COc1cc(O)c(C(=O)/C=C/c2ccccc2)cc1I [Compound 2m, (E)-1-(2-Hydroxy-5-iodo-4-methoxyphenyl)-3-phenylprop-2-en-1-one]	1.05	9.52 ± 0.03	0.95	10.01 ± 0.09							
COc1cc(O)c(C(=O)/C=C/c2ccc(F)cc2)cc1I [Compound 2n, (E)-3-(4-Fluorophenyl)-1-(2-hydroxy-5-iodo-4-methoxyphenyl)prop-2-en-1-one]	1.59	5.91 ± 0.05	0.63	9.38 ± 0.07					25.07 ± 0.1		
COc1cc(O)c(C(=O)/C=C/c2ccc(Cl)cc2)cc1I [Compound 2o, (E)-3-(4-Chlorophenyl)-1-(2-hydroxy-5-iodo-4-methoxyphenyl)prop-2-en-1-one]	0.95	11.6 ± 0.17	1.05	11.1 ± 0.12							
COc1ccc(/C=C/C(=O)c2cc(I)c(OC)cc2O)cc1 [Compound 2p, (E)-1-(2-Hydroxy-5-iodo-4-methoxyphenyl)-3-(4-methoxyphenyl)prop-2-en-1-one]	2.24	4.89 ± 0.02	0.45	10.96 ± 0.03					70.79 ± 0.2		
O=c1c(O)c(-c2ccccc2)oc2cc(F)c(I)cc12 [Compound 3a, 7-Flu.oro-3-hydroxy-6-iodo-2-phenyl-4H-chromen-4-one]	1.10		0.91		27.01 ± 0.06	29.71 ± 0.01					
O=c1c(O)c(-c2ccc(F)cc2)oc2cc(F)c(I)cc12 [Compound 3b, 7-Flu.oro-2-(4-fluorophenyl)-3-hydroxy-6-iodo-4H-chromen-4-one]	0.11	29.78 ± 0.04	9.22	3.23 ± 0.02					32.18 ± 0.15	4.34 ± 1.1	mixed type of inhibition
O=c1c(O)c(-c2ccc(Cl)cc2)oc2cc(F)c(I)cc12 [Compound 3c, 2-(4-C.hlorophenyl)-7-fluoro-3-hydroxy-6-iodo-4H-chromen-4-one]	0.09	37.51 ± 0.08	10.8	3.45 ± 0.07					19.69 ± 0.05		
COc1ccc(-c2oc3cc(F)c(I)cc3c(=O)c2O)cc1 [Compound 3d, 7-Flu.oro-3-hydroxy-6-iodo-2-(4-methoxyphenyl)-4H-chromen-4-one]	1.98		0.50		29.41 ± 0.04	58.18 ± 0.03					
O=c1c(O)c(-c2ccccc2)oc2cc(Cl)c(I)cc12 [Compound 3e, 7-Chl.oro-3-hydroxy-6-iodo-2-phenyl-4H-chromen-4-one]	7.21		0.14		6.64 ± 0.03	47.85 ± 0.04					
O=c1c(O)c(-c2ccc(F)cc2)oc2cc(Cl)c(I)cc12 [Compound 3f, 7-Chl.oro-2-(4-fluorophenyl)-3-hydroxy-6-iodo-4H-chromen-4-one]	2.11		0.47		18.17 ± 0.1	38.39 ± 0.02					
O=c1c(O)c(-c2ccc(Cl)cc2)oc2cc(Cl)c(I)cc12 [Compound 3g, 7-Chl.oro-2-(4-chlorophenyl)-3-hydroxy-6-iodo-4H-chromen-4-one]	7.69		0.13		7.69 ± 0.01	59.1 ± 0.05					
COc1ccc(-c2oc3cc(Cl)c(I)cc3c(=O)c2O)cc1 [Compound 3h, 7-Chl.oro-3-hydroxy-6-iodo-2-(4-methoxyphenyl)-4H-chromen-4-one]	2.51	5.72 ± 0.01	0.40	14.33 ± 0.03							
O=c1c(O)c(-c2ccccc2)oc2cc(Br)c(I)cc12 [Compound 3i, 7-Bro.mo-3-hydroxy-6-iodo-2-phenyl-4H-chromen-4-one]	1.73		0.57		5.76 ± 0.04	9.96 ± 0.01					
O=c1c(O)c(-c2ccc(F)cc2)oc2cc(Br)c(I)cc12 [Compound 3j, 7-Bro.mo-2-(4-fluorophenyl)-3-hydroxy-6-iodo-4H-chromen-4-one]	0.41		2.42		27.01 ± 0.07	11.16 ± 0.01					
O=c1c(O)c(-c2ccc(Cl)cc2)oc2cc(Br)c(I)cc12 [Compound 3k, 7-Bro.mo-2-(4-chlorophenyl)-3-hydroxy-6-iodo-4H-chromen-4-one]	5.57		0.18		5.25 ± 0.01	29.24 ± 0.03					
COc1cc2oc(-c3ccccc3)c(O)c(=O)c2cc1I [Compound 3m, 3-Hyd.roxy-6-iodo-7-methoxy-2-phenyl-4H-chromen-4-one]	0.88		1.14		10.5 ± 0.02	9.25 ± 0.09					
COc1cc2oc(-c3ccc(F)cc3)c(O)c(=O)c2cc1I [Compound 3n, 2-(4-F.luorophenyl)-3-hydroxy-6-iodo-7-methoxy-4H-chromen-4-one]	0.76		1.29		7.93 ± 0.06	6.15 ± 0.01					
COc1cc2oc(-c3ccc(Cl)cc3)c(O)c(=O)c2cc1I [Compound 3o, 2-(4-C.hlorophenyl)-3-hydroxy-6-iodo-7-methoxy-4H-chromen-4-one]	4.03		0.24		13.7 ± 0.14	55.27 ± 0.04					
COc1ccc(-c2oc3cc(OC)c(I)cc3c(=O)c2O)cc1 [Compound 3p, 3-Hyd.roxy-6-iodo-7-methoxy-2-(4-methoxyphenyl)-4H-chromen-4-one]	2.18	3.29 ± 0.03	0.45	7.19 ± 0.02			0.46 ± 0.16	mixed kinetic type of inhibition	22.44 ± 0.07		
